In US20240182445A1 (ONO PHARMACEUTICAL CO., LTD., priority 2019, published 2024):

Target: T1, human TREK-1 (Homo sapiens, UniProt O95069)
T1 construct: expressed in transfected cells
T1 sequence (O95069 1-426): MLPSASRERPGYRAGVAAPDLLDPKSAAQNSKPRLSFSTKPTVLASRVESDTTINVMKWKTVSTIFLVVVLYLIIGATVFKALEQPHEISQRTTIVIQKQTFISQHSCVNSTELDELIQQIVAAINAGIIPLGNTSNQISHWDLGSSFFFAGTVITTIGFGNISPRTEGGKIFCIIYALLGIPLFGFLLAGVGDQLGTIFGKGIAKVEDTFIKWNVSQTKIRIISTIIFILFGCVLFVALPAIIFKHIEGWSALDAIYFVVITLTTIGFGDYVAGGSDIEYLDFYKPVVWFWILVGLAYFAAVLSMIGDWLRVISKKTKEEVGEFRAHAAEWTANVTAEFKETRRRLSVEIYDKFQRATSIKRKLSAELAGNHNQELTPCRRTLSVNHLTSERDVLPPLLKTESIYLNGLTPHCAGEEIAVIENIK
Experiment: TREK-1 Thallium (Tl+) flux assay, Method 1
Assay type: cell-based
Conditions: TREK-1 Thallium (Tl+) flux assay
Protocol: The term “thallium flux assay” herein refers to a fluorescence-based assay used to monitor the activity of TREK channels. Thallium is a congener of potassium that readily fluxes through the pore of TREK channels. Thallium flux is measured using a commercially available, thallium-sensitive fluorescent dye called Thallos. The detail method is described below.
CHO-K1 cells stably expressing human TREK-1 were plated in 384-well plates, cultured overnight, loaded with Thallos dye the following day. Test compounds or control compound (tert-butyl (3-((4-(benzyloxy)-2-methylphenyl)carbamoyl)-4-chlorophenyl)carbamate) or 0.3% DMSO (vehicle control) which were prepared on separate plates were added to the cell plates and incubated for 10 min, and then the cells were treated with thallium stimulus buffer to initiate thallium flux. To measure the efficacy and potency of test compounds, the change in fluorescence intensity (ΔRatio) and % inhibition were calculated using the following equations:
ΔRatio=(fluorescence intensity at 25 seconds after thallium addition)/(average of fluorescent intensity before thallium addition)

[1] = no *^12 (Method 2) mark on these rows
[2] = values without footnote *12 are Method 1

| Compound | IC50 [1] | IC50 [2] |
| --- | --- | --- |
| Cc1cc(C#Cc2ccccc2)cnc1NC(=O)c1c(Cl)cnn1C[C@H]1C[C@@H]2CC[C@H]1O2 (racemic) [Compound 259, 4-chloro-N-[3-methyl-5-(phenylethynyl)pyridin-2-yl]-1-{[(1S,2S,4R)-7-oxabicyclo[2.2.1]heptan-2-yl]methyl}-1H-pyrazole-5-carboxamide and 4-chloro-N-[3-methyl-5-(phenylethynyl)pyridin-2-yl]-1-{[(1R,2R,4S)-7-oxabicyclo[2.2.1]heptan-2-yl]methyl}-1H-pyrazole-5-carboxamide] | 430 nM |  |
| CC(=O)N1CC[C@H](n2ncc(Cl)c2C(=O)Nc2ncc(C#Cc3ccccc3)cc2C)C[C@@H]1C (single isomer, unassigned) [Compound 31, 1-[(2S,4S)-1-acetyl-2-methylpiperidin-4-yl]-4-chloro-N-[3-methyl-5-(phenylethynyl)pyridin-2-yl]-1H-pyrazole-5-carboxamide or 1-[(2R,4R)-1-acetyl-2-methylpiperidin-4-yl]-4-chloro-N-[3-methyl-5-(phenylethynyl)pyridin-2-yl]-1H-pyrazole-5-carboxamide] |  | 100 nM |
| CC(=O)N1CC[C@H](n2ncc(Cl)c2C(=O)Nc2ncc(C#Cc3ccccc3)cc2C)C[C@@H]1C (single isomer, unassigned) [Compound 114, 1-[(2S,4S)-1-acetyl-2-methylpiperidin-4-yl]-4-chloro-N-[3-methyl-5-(phenylethynyl)pyridin-2-yl]-1H-pyrazole-5-carboxamide or 1-[(2R,4R)-1-acetyl-2-methylpiperidin-4-yl]-4-chloro-N-[3-methyl-5-(phenylethynyl)pyridin-2-yl]-1H-pyrazole-5-carboxamide] |  | 200 nM |
| CC(=O)N1CCC(C(C)n2ncc(Cl)c2C(=O)Nc2ncc(C#Cc3ccccc3)cc2C)CC1 (single isomer, unassigned) [Compound 197, 1-[(1R)-1-(1-acetylpiperidin-4-yl)ethyl]-4-chloro-N-[3-methyl-5-(phenylethynyl)pyridin-2-yl]-1H-pyrazole-5-carboxamide or 1-[(1S)-1-(1-acetylpiperidin-4-yl)ethyl]-4-chloro-N-[3-methyl-5-(phenylethynyl)pyridin-2-yl]-1H-pyrazole-5-carboxamide] | 300 nM |  |
| CC(=O)N1CCC(n2ncc(Cl)c2C(=O)Nc2ncc(C#Cc3ccccc3F)cc2C)C(F)C1 (stereo in doubt) [Compound 159, 1-((3R,4R)-1-acetyl-3-fluoropiperidin-4-yl)-4-chloro-N-(5-((2-fluorophenyl)ethynyl)-3-methylpyridin-2-yl)-1H-pyrazole-5-carboxamide] |  | 250 nM |
| CC(=O)N1CCC(n2ncc(Cl)c2C(=O)Nc2ncc(C#Cc3ccc(F)cc3)cc2F)[C@H](F)C1 (stereo in doubt) [Compound 213, 1-((3R,4R)-1-acetyl-3-fluoropiperidin-4-yl)-4-chloro-N-(3-fluoro-5-((4-fluorophenyl)ethynyl)pyridin-2-yl)-1H-pyrazole-5-carboxamide] | 330 nM |  |
| Cc1cc(C#Cc2ccccc2)cnc1NC(=O)c1c(Cl)cnn1C1CCN(C(=O)OC(C)(C)C)C[C@H]1F (stereo in doubt) [Compound 336, tert-butyl (3R,4R)-4-(4-chloro-5-((3-methyl-5-(phenylethynyl)pyridin-2-yl)carbamoyl)-1H-pyrazol-1-yl)-3-fluoropiperidine-1-carboxylate] | 710 nM |  |
| CC(=O)N1CCC(n2ncc(Cl)c2C(=O)Nc2ncc(C#Cc3cccs3)cc2C)CC1 [Compound 19, 1-(1-acetylpiperidin-4-yl)-4-chloro-N-(3-methyl-5-(thiophen-2-ylethynyl)pyridin-2-yl)-1H-pyrazole-5-carboxamide] |  | 60 nM |
| CC(=O)N1CC[C@@H](n2ncc(Cl)c2C(=O)Nc2ncc(C#Cc3ccccc3)cc2F)[C@H](F)C1 [Compound 20, 1-((3R,4R)-1-acetyl-3-fluoropiperidin-4-yl)-4-chloro-N-(3-fluoro-5-(phenylethynyl)pyridin-2-yl)-1H-pyrazole-5-carboxamide] |  | 70 nM |

Further lines, results first:

| IC50 [1] | IC50 [2] | Compound |
| --- | --- | --- |
| 910 nM |  | 4-chloro-1-[(2s,4r)-6-(cyclopropanecarbonyl)-6-azaspiro[3.4]octan-2-yl]-N-{5-[(4-fluorophenyl)ethynyl]-3-methylpyridin-2-yl}-1H-pyrazole-5-carboxamide or 4-chloro-1-[(2r,4s)-6-(cyclopropanecarbonyl)-6-azaspiro[3.4]octan-2-yl]-N-{5-[(4-fluorophenyl)ethynyl]-3-methylpyridin-2-yl}-1H-pyrazole-5-carboxamide [Compound 362] |
| 620 nM |  | O=C(Nc1ncc(C#Cc2ccccc2)cc1F)c1c(Cl)cnn1C[C@@H]1C[C@H]2CC[C@@H]1O2 (racemic) [Compound 319, 4-chloro-N-[3-fluoro-5-(phenylethynyl)pyridin-2-yl]-1-{[(1S,2S,4R)-7-oxabicyclo[2.2.1]heptan-2-yl]methyl}-1H-pyrazole-5-carboxamide and 4-chloro-N-[3-fluoro-5-{[(1R,2R,4S)-7-oxabicyclo[2.2.1]heptan-2-yl)methyl}-1H-pyrazole-5-carboxamide] |
|  | 170 nM | CC(=O)N1CC[C@@H](n2ncc(Cl)c2C(=O)Nc2ncc(C#Cc3ccccc3)cc2C)C[C@@H]1C (single isomer, unassigned) [Compound 86, 1-[(2S,4R)-1-acetyl-2-methylpiperidin-4-yl]-4-chloro-N-[3-methyl-5-(phenylethynyl)pyridin-2-yl]-1H-pyrazole-5-carboxamide or 1-[(2R,4S)-1-acetyl-2-methylpiperidin-4-yl]-4-chloro-N-[3-methyl-5-(phenylethynyl)pyridin-2-yl]-1H-pyrazole-5-carboxamide] |
| 430 nM |  | CC(=O)N1CC[C@@H](n2ncc(Cl)c2C(=O)Nc2ncc(C#Cc3ccccc3)cc2C)C[C@@H]1C (single isomer, unassigned) [Compound 261, 1-[(2S,4R)-1-acetyl-2-methylpiperidin-4-yl]-4-chloro-N-[3-methyl-5-(phenylethynyl)pyridin-2-yl]-1H-pyrazole-5-carboxamide or 1-[(2R,4S)-1-acetyl-2-methylpiperidin-4-yl]-4-chloro-N-[3-methyl-5-(phenylethynyl)pyridin-2-yl]-1H-pyrazole-5-carboxamide] |
| 910 nM |  | Cc1cc(C#Cc2ccc(F)cc2)cnc1NC(=O)c1c(Cl)cnn1C1CC2(CCN(C(=O)C3CC3)C2)C1 (single isomer, unassigned) [Compound 363, 4-chloro-1-[(2s,4r)-6-(cyclopropanecarbonyl)-6-azaspiro[3.4]octan-2-yl]-N-{5-[(4-fluorophenyl)ethynyl]-3-methylpyridin-2-yl}-1H-pyrazole-5-carboxamide or 4-chloro-1-[(2r,4s)-6-(cyclopropanecarbonyl)-6-azaspiro[3.4]octan-2-yl]-N-{5-[(4-fluorophenyl)ethynyl]-3-methylpyridin-2-yl}-1H-pyrazole-5-carboxamide] |
|  | 40 nM | CC(=O)N1CCC(n2ncc(Br)c2C(=O)Nc2ncc(C#Cc3ccccc3)cc2C)CC1 [Compound 17, 1-(1-acetylpiperidin-4-yl)-4-bromo-N-(3-methyl-5-(phenylethynyl)pyridin-2-yl)-1H-pyrazole-5-carboxamide] |
|  | 60 nM | CC(=O)N1CCC(n2ncc(Cl)c2C(=O)Nc2ncc(C#Cc3cccs3)cc2F)CC1 [Compound 18, 1-(1-acetylpiperidin-4-yl)-4-chloro-N-(3-fluoro-5-(thiophen-2-ylethynyl)pyridin-2-yl)-1H-pyrazole-5-carboxamide] |
